Some test systems named below: A498; ACHN; EKVX; HCC 2998; HCT-15; IGROV-1; K562; LOX IMVI; MOLT-4; Malme-3M; OVCAR-4; SK-MEL-28; SNB-78; TK-10; UACC-257; BT-549; DU-145; MDA-N; NCI/ADR-RES; T47D.
What all share (assay): NCI tumour cell line growth inhibition, 48 h

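48-hour exposure; five concentrations; linearly interpolated endpoints. Here, GI50 denotes the concentration required for 50% inhibition of growth.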 Activity calls are given as the source filed them. No stated cut-off is given here; in the data, active = GI50 up to about 1.1 µM and inactive = higher. Peptide text beside a SMILES is read from it.

As to `O=Cc1c(O)c(C(=O)Nc2ccc3[nH]c(=O)[nH]c3c2)cc2ccccc12`, the GI50 with A498 was > 100 µM (inactive); in the experiment with ACHN, > 100 µM (inactive); in the experiment with EKVX, > 100 µM (inactive); in the experiment with HCC 2998 it was > 100 µM (inactive); with HCT-15, greater than 100 µM; with IGROV-1, > 100 µM (inactive). The GI50 with K562, in the experiment with LOX IMVI, with MOLT-4, with Malme-3M, in the experiment with OVCAR-4 and with SK-MEL-28 was > 100 µM (inactive) throughout. Further, the GI50 with SNB-78, in the experiment with TK-10 and in the experiment on UACC-257 was > 100 µM (inactive) throughout.
With `C=C1C(=O)OC2CC3(C)OC3CC/C(C)=C/C(OC(C)=O)C12` (stereo not drawn), the GI50 in the experiment with A498 is 15.8 µM (inactive); with ACHN, 11.2 µM (inactive); with BT-549, 9.71 µM (inactive); with DU-145, 15.1 µM (inactive); in the experiment on EKVX it was 16.9 µM (inactive); in the experiment on HCC 2998 it was 16.9 µM (inactive). Further, the GI50 was 5.57 µM in the experiment on HCT-15; 17.1 µM (inactive) in the experiment with IGROV-1; 2.47 µM (inactive) in the experiment with K562; 5.22 µM (inactive) in the experiment with LOX IMVI; 6.12 µM (inactive) with MDA-N; 3.37 µM (inactive) in the experiment with MOLT-4. Also, the GI50 was 2.55 µM (inactive) with Malme-3M; 11.3 µM (inactive) in the experiment on NCI/ADR-RES; 6.01 µM (inactive) with OVCAR-4; 5.56 µM (inactive) in the experiment on SK-MEL-28; 9.44 µM (inactive) with SNB-78; 3.76 µM (inactive) in the experiment on T47D. The results for the GI50 in the experiment with TK-10 and in the experiment with UACC-257 were 3.61 µM (inactive) and 9.64 µM (inactive), respectively.
Regarding `C=C1C(=O)OC2CCCCC3OC3C12` (stereo not drawn), the GI50 with A498 was 15.3 µM (inactive); in the experiment on ACHN it was 11 µM (inactive); in the experiment on EKVX, 16.9 µM (inactive); with HCC 2998, 11.7 µM (inactive); in the experiment on HCT-15 it was 6.9 µM; in the experiment with IGROV-1, 17.1 µM (inactive). Besides, the GI50 in the experiment on K562 is 12.3 µM (inactive); with LOX IMVI, 15.8 µM (inactive); in the experiment on MOLT-4, 13.1 µM (inactive); in the experiment with Malme-3M, 10.7 µM (inactive); with OVCAR-4 it was 14.2 µM (inactive); with SK-MEL-28, 10.9 µM (inactive). Moreover, the GI50 in the experiment on SNB-78 was 19.4 µM (inactive); with TK-10, 13.8 µM (inactive); with UACC-257, 13.4 µM (inactive).
As for `Cc1cc(N(CCC#N)CCC#N)ccc1/C=C(\N=[N+]=[N-])C(=O)NC(=O)COc1ccccc1`, the GI50 in the experiment on A498 was > 100 µM (inactive); in the experiment on ACHN, > 100 µM (inactive); in the experiment with EKVX, > 100 µM (inactive); with HCC 2998, > 100 µM (inactive); in the experiment on HCT-15, greater than 100 µM; with IGROV-1 it was > 100 µM (inactive). Further, the GI50 in the experiment with K562, with LOX IMVI, in the experiment with MOLT-4, in the experiment with Malme-3M, with OVCAR-4 and in the experiment on SK-MEL-28 was > 100 µM (inactive) in each case. In addition, the values for the GI50 in the experiment on SNB-78, in the experiment with TK-10 and in the experiment with UACC-257 were > 61.7 µM (inactive), > 100 µM (inactive) and > 100 µM (inactive), respectively.
Turning to `CCOC(=O)c1ccc(N[C@@H]2c3cc4c(cc3C(C3=CC(=O)C(=O)C(OC)=C3)[C@H]3C(=O)OCC32)OCO4)cc1` (stereo partly drawn), the GI50 in the experiment on A498 was 1.77 µM (inactive); in the experiment on ACHN, 0.9 µM (active); in the experiment on EKVX it was 3.73 µM (inactive); in the experiment on HCC 2998 it was 4.6 µM (inactive); in the experiment on HCT-15 it was 2.21 µM; with IGROV-1, 5.78 µM (inactive). For the same molecule, the GI50 is 2.67 µM (inactive) in the experiment with K562; 2.08 µM (inactive) with LOX IMVI; 0.215 µM (active) with MOLT-4; 2.53 µM (inactive) in the experiment on Malme-3M; 24.2 µM (inactive) in the experiment on OVCAR-4; 7.6 µM (inactive) with SK-MEL-28. Further, the GI50 is 8.69 µM (inactive) with SNB-78, 9.84 µM (inactive) in the experiment with TK-10 and 9.08 µM (inactive) in the experiment on UACC-257.
As to `CC(C)CC(NC(=O)C(CC(C)C)NC(=O)C(Cc1c[nH]cn1)NC(=O)C(C)NC(=O)C(NC(=O)C(C)NC(=O)C(Cc1c[nH]c2ccccc12)NC(=O)C(CCC(=O)O)NC(=O)C(N)Cc1ccccc1)C(C)C)C(N)=O` (stereo not drawn) (H-FEWAVAHLL-NH2; configuration not given here), the GI50 with A498 is > 12.5 µM (inactive); in the experiment on ACHN it was > 100 µM (inactive); in the experiment on DU-145 it was > 12.5 µM (inactive); with EKVX, > 12.5 µM (inactive); with HCC 2998, > 12.5 µM (inactive); with HCT-15, greater than 12.5 µM. The GI50 in the experiment with IGROV-1, with K562, in the experiment with LOX IMVI, in the experiment with MDA-N, in the experiment with MOLT-4 and with Malme-3M was > 12.5 µM (inactive) in each case. Besides, the GI50 is > 12.5 µM (inactive) with NCI/ADR-RES; > 12.5 µM (inactive) in the experiment on OVCAR-4; 63.4 µM (inactive) in the experiment with SK-MEL-28; > 100 µM (inactive) in the experiment on SNB-78; > 12.5 µM (inactive) with T47D; > 12.5 µM (inactive) in the experiment on UACC-257.

Values taken from ChEMBL document CHEMBL1201862, “PubChem BioAssay data set” (2004).
